Laboratory results taken from patent US10028999B2, “PAR-1 based therapeutic conjugates and uses thereof” (TEL HASHOMER MEDICAL RESEARCH INFRASTRUCTURE AND SERVICES …, priority 2014, dated 2018).
Peptide text beside a SMILES is read from it. * marks the point of attachment. Tos = Cc1ccc(S(=O)(=O)*)cc1; CH2Cl = ClC*

Experiments:
[1] = test system: blood coagulation (prothrombin time); experiment: Prothrombin time test; type: biochemical; conditions: for PT: without conjugate 11.5; for Potency score in PT test: most potent (1) to least potent (5)
[2] = test system: blood coagulation (aPTT); experiment: Activated partial thromboplastin time test; type: biochemical; conditions: for aPTT: without conjugate 30.5; for Potency score in aPTT test: most potent (1) to least potent (5)
[3] = test system: thrombin; experiment: Thrombin time test; type: biochemical; conditions: for TT: without conjugate 13.4; for Potency score in TT test: most potent (1) to least potent (5)
[4] = test system: CNS-1 glioma cells; experiment: Proliferation (XTT) of CNS-1 glioma cells; type: cell-based, rat; conditions: CNS-1 cells
Protocol: Several peptide moieties (Table 1) according to the present invention were synthesized. Proliferation was measured, by means of XTT, in C6 and CNS-1 glioma cell-lines (FIGS. 8A and 8B, respectively). In C6 cells, proliferation was measured before (black bar) and after cells were treated with the PAR-1 antagonist SCH79797 at various doses ranging from 10 nM to 10 μM (grey bars; FIG. 8A).
In another set of experiments, CNS-1 glioma cell-line was treated with increased doses of TLCK (125 nM to 14 mM), for 48 hours (FIG. 9; grey bars). Proliferation was measured by means of XTT in comparison to non-treated cells (control; black bar).
Initially, CNS-1 glioma cells were treated with increased concentrations of two peptide conjugates: a short conjugate of the formula tosyl-DPR-CK (comprising 3 amino acids, 3AA) or a long conjugate of the formula tosyl-NATLDPR-CK (comprising 7 amino acids, 7AA; SEQ ID NO: 4) in concentrations of 100 pM, 1 nM and 10 nM, for 48 hours (FIG. 10). FIG. 10 provides the results of an XTT assay used for assessing cell proliferation.
The effect of the peptide conjugate alone, or in combination with PAR-1 antagonist, SCH79797, on cell proliferation was determined in comparison to untreated cells or cells treated with PAR-1 antagonist (FIG. 13).

[5] = test system: Factor Xa; experiment: Factor Xa activity test; type: biochemical; conditions: 100 μM; for Potency score in Factor Xa activity test: most potent (1) to least potent (5); for Fxa: without conjugate 0.11
[6] = target: Protein C (Homo sapiens, UniProt P04070); experiment: Protein C activity test; type: biochemical; conditions: for aPC: without conjugate 109; for Potency score in Protein C activity test: most potent (1) to least potent (5)
Protein C, sequence (P04070 212-461 limits assumed): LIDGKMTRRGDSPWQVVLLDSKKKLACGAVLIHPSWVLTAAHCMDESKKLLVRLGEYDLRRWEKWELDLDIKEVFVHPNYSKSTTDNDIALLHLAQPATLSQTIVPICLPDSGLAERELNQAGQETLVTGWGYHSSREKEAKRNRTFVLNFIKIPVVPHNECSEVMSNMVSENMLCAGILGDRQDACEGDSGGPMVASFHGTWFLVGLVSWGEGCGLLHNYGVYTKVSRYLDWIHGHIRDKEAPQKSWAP
Protein C, sequence (P04070 43-197 partner limits assumed): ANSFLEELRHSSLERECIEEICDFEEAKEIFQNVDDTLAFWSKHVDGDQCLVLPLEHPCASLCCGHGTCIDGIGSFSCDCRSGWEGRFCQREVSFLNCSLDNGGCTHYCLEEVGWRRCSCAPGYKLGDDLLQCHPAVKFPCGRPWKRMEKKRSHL

[7] = test system: rat Glioblastoma multiforme (GBM) tumor; experiment: Tumor size, edema and survival in GBM animal model; type: in vivo; conditions: for change in edema surrounding the tumor: 1 μl/h for 7 days; for change in tumor size: 1 μl/h for 7 days intratumoral, MRI, grade 1 and 2 tumors; for rats with severe initial tumors surviving to the second MRI: none of 3 in controls
Protocol: Cells (0.5×10^6 cells) from a highly malignant cell line of rat Glioblastoma multiforme (GBM) were injected by stereotactic methods into the parietal cortex of rats. Five (5) days later the brain of these rats were examined by MM and the tumors scored on a scale of 1-3 (1-small size tumor, 2-middle size tumor, 3-large size tumor) and for ventricular localization of the tumor. A catheter was placed in the brain tumor and attached to an osmotic pump (Alzet) releasing 1 μl/h for 7 days of one of the following three (3) treatments: saline (n=13), 6AA 2 μM (n=14) and 6AA 20 μM (n=14).
In order to account for the unequal distribution of initial tumor size, tumor and edema analyses were performed on rats with grade 1 and 2 tumors in the initial Mill (n=7, 6 and 5 for the saline, low and high treatment groups, respectively).
Survival was registered daily (FIG. 21).

[8] = in vivo; conditions: ip, 2 micromolar, in 100 ul
Protocol: The concentrations of the peptide conjugates in the plasma of animals treated therewith was evaluated by a unique method that was based on the ability of the peptide conjugates to inhibit thrombin activity. […] The essay initiated by obtaining blood samples from animals which received the peptide conjugates (100 microliter containing 2 micromolar, i.p.). The blood samples, after being maintained in citrate buffered sample tubes, were subjected to centrifugation for plasma separation. Samples were then filtered through a membrane with a 10 kD molecular weight cutoff which excluded all blood coagulation factors (by addition of calcium to neutralize the anticoagulation effect of the citrate buffer). Coagulation factor-free plasma samples were then applied to the thrombin activity assay.
The resulting thrombin activities in each plasma sample either diluted (×10) or as is were given in arbitrary units (FIGS. 18-18D, diagonal shading and dotted bars, respectively). However, the actual concentration were deduced by comparing the activities to calibrated activities generated with known concentrations of the conjugate peptides. The calibration data included the following thrombin activities: activity in a sample of thrombin in the absence of plasma and conjugates (black bars, FIGS. 18A-18D); and activity in four samples of thrombin and known concentrations of the peptide conjugates (10 nM, 100 nM, 1 micromolar and 10 micromolar; bars 2nd to 5th from right in FIGS. 18A-18D).

[9] = test system: CNS-1 glioma cells
Protocol: The thrombin-like activity of CNS-1 cells was initially measured in control cells and in cells treated with (i) the short peptide conjugate (tosyl-DPR-CK, corresponding to a conjugate that includes the peptide termed 3AA) or (ii) the long conjugate (tosyl-NATLDPR-CK, corresponding to a conjugate that includes the peptide termed 7AA (SEQ ID No. 4)) at high ([…]) and low (100 nM) concentrations (FIG. 16).

[10] = test system: EAN rats (experimental autoimmune neuritis); experiment: Electrophysiological tests in EAN rats treated with thrombin inhibitors; type: in vivo, rat
Protocol: (§1) Electrophysiological tests of the sciatic nerves were performed on day 32 PI (post-immunization/induction) in EAN model (FIGS. 3A-C) and 8 weeks after STZ induction (FIG. 4A-C). Rats were anesthetized with Phenobarbital (IP, 24 mg/kg). Two pairs of monopolar needle electrodes were used to stimulate the tail nerves. Stimulating cathodes were inserted to a depth of 4-5 mm at the base of the tail and 4 cm distally. An anode at each location was inserted into the skin (4-5 mm depth) 1 cm proximal to the cathode. A ground electrode was placed between the distal stimulating electrode and the active recording electrode. Electromyography (EMG) recordings of responses of the tail muscles to proximal and distal stimuli, made by a pair of ring electrodes coated with electrode jelly and placed 1 cm distally to the distal stimulating electrode, were collected. The tail skin was wiped with alcohol prior to placing the electrodes. […] Both proximal and distal latencies were measured using time intervals from the stimulus artifact to the first deflection from baseline. To calculate the motor nerve conduction velocity (MNCV), the distance between stimulating cathodes was divided by the latency difference. Amplitudes of the compound muscle action potential (CMAP) from both proximal and distal stimulations were measured from the negative to the positive peaks. The reduction of the proximal CMAP compared with that of the distal CMAP was calculated by the equation: [(distal CMAP-proximal CMAP)/distalCMAP×100] and was defined as the R ratio. Temperature differences were minimized by conducting the study as soon as the anesthesia had taken effect and by warming the tail with a heating lamp.
(§2) FIGS. 3 and 4 each include 3 graphs summarizing the results from electrophysiological tests of treated rats, as follows: distal latency (3A, 4A) referring to the time, in milliseconds, between distal stimulation to recording; conduction velocity (3B, 4B) referring to the distance over time, in meters/seconds; and amplitude (3C, 4C) referring to the size of the response as measured in millivolts.

[11] = test system: STZ-induced diabetic rats; experiment: Electrophysiological tests in STZ-induced diabetic rats treated with thrombin inhibitors; type: in vivo, rat
Protocol: as §1, §2

| Compound | PT ([1]; 10 nM) [s] | PT ([1]; 1 μM) [s] | Potency score in PT test ([1]; 100 μM) | PT ([1]; 100 μM) [s] | aPTT ([2]; 10 nM) [s] | aPTT ([2]; 1 μM) [s] | Potency score in aPTT test ([2]; 100 μM) | aPTT ([2]; 100 μM) [s] | TT ([3]; 10 nM) [s] | Potency score in TT test ([3]; 1 μM) | TT ([3]; 1 μM) [s] | TT ([3]; 100 μM) [s] | inhibition of cell proliferation ([4]; 48 hours, 10 μM, p<0.05) | Potency score in Factor Xa activity test [5] | Fxa [5] | aPC ([6]; 1 μM) | Potency score in Protein C activity test ([6]; 100 μM) | aPC ([6]; 100 μM) | level at time molar [8] [nM] | further results |
| --- | --- | --- | --- | --- | --- | --- | --- | --- | --- | --- | --- | --- | --- | --- | --- | --- | --- | --- | --- | --- |
| Cc1ccc(S(=O)(=O)N[C@@H](CC(C)C)C(=O)N[C@@H](CC(=O)O)C(=O)N2CCC[C@H]2C(=O)N[C@@H](CCCNC(=N)N)C(=O)CCl)cc1 [4AA, tosyl-LDPR-CK] (Tos-LDPR-CH2Cl) | 11.5 | 11.4 | 5 | 12.7 | 30.8 | 30.9 | 5 | 42.6 | 13.5 | 5 | 14.6 | > 80 | – | – | – | – | – | – | – | – |
| Cc1ccc(S(=O)(=O)N[C@@H](C)C(=O)N[C@H](C(=O)N[C@@H](CC(C)C)C(=O)N[C@@H](CC(=O)O)C(=O)N2CCC[C@H]2C(=O)N[C@@H](CCCNC(=N)N)C(=O)CCl)[C@@H](C)O)cc1 [6AA, tosyl-ATLDPR-CK] (Tos-ATLDPR-CH2Cl) | 11.5 | 11.4 | 3 | 16.5 | 30 | 30.6 | 3 | 67.6 | 13.9 | 3 | 18.5 | > 80 | Significant inhibition | 3 | 0.36 | 108 | 2 | 11 | < 10 | proliferation compared to controls ([4]; 72 hours, all tested concentrations, p<0.05): significantly lower proliferation; change in edema surrounding the tumor ([7]; 2 μM): reduction in the edema; change in tumor size ([7]; 2 μM): A similar trend was observed; rats with severe initial tumors surviving to the second MRI ([7]; 2 μM): 1 out of 3; change in edema surrounding the tumor ([7]; 20 μM): reduction in the edema; change in tumor size ([7]; 20 μM, p=0.030): reduced tumor size to half of the original size; survival ([7]; 20 μM, registered daily): clear trend to increased survival; rats with severe initial tumors surviving to the second MRI ([7]; 20 μM): all 3 |
| Cc1ccc(S(=O)(=O)N[C@@H](CC(N)=O)C(=O)N[C@@H](C)C(=O)N[C@H](C(=O)N[C@@H](CC(C)C)C(=O)N[C@@H](CC(=O)O)C(=O)N2CCC[C@H]2C(=O)N[C@@H](CCCNC(=N)N)C(=O)CCl)[C@@H](C)O)cc1 [7AA, tosyl-NATLDPR-CK] (Tos-NATLDPR-CH2Cl) | 11.5 | 11.2 | 2 | 17.4 | 29.9 | 30.7 | 2 | 85.2 | 13.5 | 2 | 24.1 | > 80 | Significant inhibition | 2 | 0.43 | 110 | 4 | 25 | ~10 | IC50 [9]: 0.01 nM; inhibition of cell proliferation ([4]; XTT, 48 hours, 10 nM): significant inhibition; inhibition of cell proliferation, in combination with PAR-1 antagonist ([4]; XTT, PAR-1 antagonist 1 μM, compared to untreated cells and to PAR-1 antagonist alone): greater inhibition on cell proliferation; inhibition of cell proliferation, applied alone ([4]; XTT, compared to untreated cells and to PAR-1 antagonist alone): greater inhibition on cell proliferation |
| N alpha-tosyl-L-lysine chloromethyl ketone [TLCK] | – | – | – | – | – | – | – | – | – | – | – | – | – | – | – | – | – | – | – | conduction velocity ([10]; daily treatment for 2 weeks, TLCK 4.4 mg/kg, NAPAP 120 μM/kg, untreated EAN 23.6±1.2): 40.55±6.7 m/sec; proximal amplitude ([10]; untreated EAN 0.76±0.33, non-significant): 1.36±0.49 millivolts; latency ([10]; untreated EAN 1.43±0.023, control 0.54±0.03): 1.28 ± 0.18 ms; conduction velocity ([11]; STZ rats, daily treatment for 2 weeks, TLCK 4.4 mg/kg, NAPAP 120 μM/kg, untreated STZ 28.5±2.8): 41.95±3.9 m/sec; proximal amplitude ([11]; STZ rats, untreated STZ 0.48±0.13, insignificant): 1.81±0.8 millivolts; latency ([11]; STZ rats, untreated STZ 1.93±0.139, control 1.29±0.057): 1.44 ± 0.04 ms; internal bleeding ([11]; animals treated with thrombin inhibitors): caused severe internal bleeding; concentration at which glioma-cell proliferation decreased ([4]; 48 hours): higher than 1 μM; proliferation-inhibition ([4]; 48 hours, 1 μM to 125 nM): No significant proliferation-inhibition; proliferation / cell death ([4]; 48 hours, 6.7 mM and 14 mM): caused cell death; proliferation-inhibition ([4]; 48 hours, 8-33 μM): significant proliferation-inhibition; proliferation, administered alone ([4]; XTT, 1 μM): did not inhibit proliferation; proliferation-inhibition, combined treatment with the PAR-1 antagonist ([4]; compared with PAR-1 antagonist (1 μM) alone): significantly increased said inhibitory effect |
